Source: article PMC3460729, “Innate immune properties of selected human neuropeptides against Moraxella catarrhalis and nontypeable Haemophilus influenzae” (BMC Immunology, 2012)
Marks after values point to notes of the source that are not given here.

What was measured:
E. coli ML-35p = assay: ONPG-mediated β-galactosidase membrane permeability assay; assay type: cell-based, Escherichia coli; details: for time of maximal OD increase (ONPG influx): 100 μM neuropeptide; for ID50 (inducible dose) for intracellular influx of ONPG: dose causing 50% increase in OD405 in reference to chloroform-inducible maximum at 45 min, 10^6 CFU/ml, NaPB pH 7.4, 3 mM ONPG, 37°C, triplicate
Protocol: To measure the activity of neuropeptides in permeabilization of bacterial membrane, the ONPG-mediated β-galactosidase microplate assay was used. Permeabilization was measured using E. coli ML-35 with constitutive cytoplasmic β-galactosidase activity as previously described. Briefly, 18 h E. coli ML-35p in TSB was recultivated in TSB until mid-log phase (OD600 = 0.5). Flasks were put on ice for 20 min, and 2 ml of bacterial suspensions were transferred to Eppendorf tubes, washed twice with 10 mM sodium phosphate NaPB (pH 7.4) and suspended in NaPB to OD600 = 0.5. […] Microplates were incubated at 37°C for 1.5 h and optical densities were measured every 15 minutes at λ=405 nm (spectrophotometer Opsys MR Dynex Technologist). All the assays were performed in triplicate. Two positive controls were used: polymyxin B at the final concentration of 1 μg/ml as an established model of peptide permeabilizing action, and 20% chloroform (v/v). […] The molar concentration of NP that caused such increase was extrapolated from a linear portion of NP titration curve. Negative controls constituted bacteria incubated with NaPB and ONPG but without neuropeptides.

M. catarrhalis Mc5, Mc6 = assay: Time kill assay from 0 to 1.5 h; assay type: cell-based, Moraxella catarrhalis; details: 100 μM
Protocol: (§1) For the time kill assay from 0 to 1.5 h, overnight cultures of Mc and NTHi were inoculated into new medium and incubated under the relevant conditions until early log-phase (OD600 = 0.25–0.3). The bacteria were diluted in 10 mM sodium phosphate buffer, NaPB, (pH 7.4) containing 1% (w/v) BHI to obtain ~2 x 10^6 CFU/ml. […] After each time of incubation the suspensions were 10-fold serially diluted with 10 mM NaPB-1% BHI and 20 μl aliquots were plated in triplicate on BHI (M. catarrhalis) or HAEM (H. influenzae) agar plates. The plates were incubated overnight at 37°C in 5% CO2 conditions. Simultaneously, the incubation of bacteria in the presence of an appropriate diluent was included for positive control of bacterial growth. The colony counts and CFU/ml were calculated next day. The bactericidal activity of neuropeptides was expressed as survival ratios determined as the numbers of CFU after neuropeptide incubation divided by the numbers of CFU estimated from a control plate (time 0). All antimicrobial assays were performed at least two times in triplicate.

human PMNs [1] = assay: fMLF-induced ROS generation by PMNs, luminol-dependent chemiluminescence; assay type: cell-based; details: for ROS release [% of control]: 0.2 μM fMLF, peak height PHCL, mean of three independent experiments
Protocol: (§2) Polymorphonuclear leukocytes (PMNs) from healthy young adult volunteers were isolated from venous blood samples anticoagulated with Lithium-heparin (7.5 ml) by ficoll (Aqua-Med, Poland) density gradient centrifugation (2000 rpm/30 min), followed by hypotonic lysis of erythrocytes with a lysing buffer (0.83% NH4Cl, 0.1% KHCO3, EDTA, pH 7.4). After two washes (1400 rpm/10 min) in PBS, PMNs were resuspended to the final concentration of […] cells/ml in phagocytic buffer: HBSS with Ca^++ and Mg^++ supplemented with 1% HiFBS. The purity of granulocyte suspensions was checked using 15 μg/ml of acridine orange. […] Isolated PMNs were kept for 30 min at 37°C and 5% CO2 until used.
(§3) Reactive oxygen species (ROS) formation by PMNs was measured using luminol-dependent chemiluminescence assay (CL) in white flat-bottom 96-well microplates (NUNC, Denmark). The reaction mixture of total volume 200 μl in each well contained: 100 μl of PMN suspension in HBSS–Ca^++Mg^++ (10^5 cells/well), 40 μl of luminol (50 μM/well), 40 μl of fMLP (0.2 μM/well), 20 μl of particular NP (in the range 10^−12–10^−8 M/well). In other experiments, the respiratory burst was triggered by phagocytosis of 40 μl heat killed (56°C/30 min) M. catarrhalis ATCC 25238 or H. influenzae ATCC 49247 at concentration of ½ of OD600 = 1 or OD600 = 1, respectively. […] The PMA stimulus at 0.1 μM final concentration was used as positive control of the relevant oxidative stress. The CL kinetics was measured at constant 37°C temperature using luminometer (Microlumat, LB96P, Berthold) and recorded as relative light units (RLU). Measuring conditions for fMLP were: interval (46 s), run time (up to 30 min). The conditions for bacterial and PMA stimulation were: interval (83 s), run time (up to 60 min). The maximal value of CL response curve was expressed as peak height (PHCL) for fMLP stimulant. In other cases the area under chemiluminescence curve (AUCCL) was calculated. Each sample was run in triplicate and the values were averaged. […] Results were expressed as mean ± SD.

[2] = tested on: human PMNs stimulated with M. catarrhalis ATCC 25238; assay: M. catarrhalis-stimulated ROS generation by PMNs, luminol-dependent chemiluminescence; assay type: cell-based; details: 10^−8 M NP, nonopsonized M. catarrhalis; mean ± SD, n = 5-6 donors
Protocol: as §2
Reactive oxygen species (ROS) formation by PMNs was measured using luminol-dependent chemiluminescence assay (CL) in white flat-bottom 96-well microplates (NUNC, Denmark). The reaction mixture of total volume 200 μl in each well contained: 100 μl of PMN suspension in HBSS–Ca^++Mg^++ (10^5 cells/well), 40 μl of luminol (50 μM/well), 40 μl of fMLP (0.2 μM/well), 20 μl of particular NP (in the range 10^−12–10^−8 M/well). […] The maximal value of CL response curve was expressed as peak height (PHCL) for fMLP stimulant. In other cases the area under chemiluminescence curve (AUCCL) was calculated. […] Results were expressed as mean ± SD.

[3] = tested on: nontypeable H. influenzae NTHi3, NTHi6; assay: Time kill assay from 0 to 1.5 h; assay type: cell-based, Haemophilus influenzae; details: 100 μM, clinical isolates of H. influenzae
Protocol: as §1

human PMNs [4] = assay: PMA-induced chemiluminescence in PMNs; assay type: cell-based; details: 0.1 μM PMA, 0 to 60 min; five independent experiments in triplicate, 5 donors
Protocol: as §3, with “SD. […]” for “SD.”

| SMILES | time of maximal OD increase (ONPG influx) (E. coli ML-35p) [min] | ID50 (inducible dose) for intracellular influx of ONPG (E. coli ML-35p) [µM] | culture survived (M. catarrhalis Mc5, Mc6; Mc5 and Mc6, 0.5 h) [%] | ROS release [% of control] (human PMNs [1]; 10^-8 M NP) | ROS release [% of control] (human PMNs [1]; 10^-10 M NP) | ROS release [% of control] (human PMNs [1]; 10^-12 M NP) | activation of respiratory burst of PMNs (human PMNs [1]; neuropeptide alone, without stimulus) | increase of mean AUCCL [2] [%] | type of antibacterial activity (M. catarrhalis Mc5, Mc6; both Mc strains) | type of antibacterial activity [3] | log10 of mean AUCCL ± SEM (human PMNs [4]) |
| --- | --- | --- | --- | --- | --- | --- | --- | --- | --- | --- | --- |
| CSCC[C@H](NC(=O)[C@H](CC(C)C)NC(=O)CNC(=O)[C@H](Cc1ccccc1)NC(=O)[C@H](Cc1ccccc1)NC(=O)[C@H](CCC(N)=O)NC(=O)[C@H](CCC(N)=O)NC(=O)[C@@H]1CCCN1C(=O)[C@H](CCCCN)NC(=O)[C@@H]1CCCN1C(=O)[C@@H](N)CCCNC(=N)N)C(N)=O [SP, substance P] | 90 | 29.2 | ~100 | 179.18^a % of control | 160.36^a % of control | 140.83^a % of control | did not activate | 14.2 ± 3.4 |  |  |  |
| C[C@H](N)C(=O)NCC(=O)N[C@H]1CSSC[C@@H](C(=O)O)NC(=O)[C@H](CO)NC(=O)[C@H]([C@@H](C)O)NC(=O)[C@H](Cc2ccccc2)NC(=O)[C@H]([C@@H](C)O)NC(=O)[C@H](CCCCN)NC(=O)[C@H](Cc2c[nH]c3ccccc23)NC(=O)[C@H](Cc2ccccc2)NC(=O)[C@H](Cc2ccccc2)NC(=O)[C@H](CC(N)=O)NC(=O)[C@H](CCCCN)NC1=O [SOM, somatostatin] | 90 | 104.1 |  |  |  |  |  |  | bacteriostatic | bacteriostatic |  |
| CCCCCCCCCCCCCC(=O)O[C@@H]1[C@@H](C)[C@@]2(O)[C@@H](C=C(CO)C[C@]3(O)C(=O)C(C)=C[C@@H]23)[C@@H]2C(C)(C)[C@]12OC(C)=O [PMA, phorbol myristate acetate] |  |  |  |  |  |  |  |  |  |  | 6.05 ± 4.32 |
